“And” between values parts separate entries of the source, which are not always exact repeats. Equal entries are not always repeated.
Target: T1, mut-GVHH PmIleRS2 (Priestia megaterium, UniProt A0A0B6AVD3, G56H/H54G)
T1 sequence (A0A0B6AVD3 1-1032 H54G/G56H): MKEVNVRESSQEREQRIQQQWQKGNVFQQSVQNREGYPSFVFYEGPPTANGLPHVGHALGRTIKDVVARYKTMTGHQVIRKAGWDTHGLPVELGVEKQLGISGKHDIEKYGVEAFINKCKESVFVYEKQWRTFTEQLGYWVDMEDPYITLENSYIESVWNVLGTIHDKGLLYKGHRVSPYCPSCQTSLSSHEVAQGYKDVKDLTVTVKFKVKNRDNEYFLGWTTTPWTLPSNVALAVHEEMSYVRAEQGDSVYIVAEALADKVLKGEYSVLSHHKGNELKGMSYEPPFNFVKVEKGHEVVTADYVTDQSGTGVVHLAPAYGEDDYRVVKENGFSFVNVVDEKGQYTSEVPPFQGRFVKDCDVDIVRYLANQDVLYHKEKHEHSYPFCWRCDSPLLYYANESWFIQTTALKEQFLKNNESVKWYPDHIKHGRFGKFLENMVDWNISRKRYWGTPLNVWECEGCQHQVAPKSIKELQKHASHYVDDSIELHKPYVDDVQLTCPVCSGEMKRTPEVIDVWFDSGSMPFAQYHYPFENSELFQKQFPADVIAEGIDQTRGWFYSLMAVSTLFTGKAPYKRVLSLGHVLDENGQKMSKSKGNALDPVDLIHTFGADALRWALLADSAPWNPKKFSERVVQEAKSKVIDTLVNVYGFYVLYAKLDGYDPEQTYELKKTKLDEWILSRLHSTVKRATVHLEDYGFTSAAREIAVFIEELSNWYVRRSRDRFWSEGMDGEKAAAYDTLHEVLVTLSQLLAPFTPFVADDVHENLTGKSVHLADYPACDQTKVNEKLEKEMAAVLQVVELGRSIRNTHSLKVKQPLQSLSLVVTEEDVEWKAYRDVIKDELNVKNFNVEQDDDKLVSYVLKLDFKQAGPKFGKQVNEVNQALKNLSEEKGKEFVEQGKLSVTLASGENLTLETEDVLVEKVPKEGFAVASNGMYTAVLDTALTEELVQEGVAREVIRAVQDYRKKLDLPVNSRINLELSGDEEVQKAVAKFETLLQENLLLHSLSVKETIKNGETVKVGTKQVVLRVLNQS
Assay: ATP-PPi exchange assay, mupirocin inhibition of amino acid activation
Assay type: biochemical, Priestia (Bacillus) megaterium
Method: L-Ile and ATP concentrations ranged from 1/10 KM to 10 KM values. When measuring the KI towards one of the substrates, the other was held in saturation (concentrations at least 10 KM). The aliquots of the reaction mixture (1–2.5 μl) were quenched in 2 volumes of 500 mM NaOAc pH = 4.5, 0.1% SDS, and formed ^32P-ATP was separated from the remaining ^32P-PPi by thin-layer chromatography on Polygram CEL 300 PEI UV254 TLC plates (Macherey-Nagel, cat: 801063) using 750 mM KH2PO4 pH=3.5, 4 M urea buffer. Visualization and quantification of the signals was performed using a Typhoon Phosphoimager 5 (General Electric) and accompanying ImageQuant™ TL software (SV: 10.2). The kinetic constants were determined using a global fit option of the competitive inhibition model of GraphPad Prism 6 software (SV: 6.01). All experiments were performed in triplicates. The kcat was determined by dividing the maximal velocity, VM, with the used enzyme concentration. […]
variable substrate (ATP or Ile) was varied in the range of 0.1 KM to 10 KM. The other substrate (Ile or ATP) was kept in excess at 5 to 10 KM. Data were globally fitted to the competitive inhibition model using GraphPad prism 6.01 for Windows software. The values represent the average value ± SD of three independent experiments. Source data are provided as a Source Data file.

`C/C(=C\C(=O)OCCCCCCCCC(=O)O)C[C@@H]1OC[C@H](C[C@@H]2O[C@H]2[C@@H](C)[C@H](C)O)[C@@H](O)[C@H]1O` [mupirocin] gave a vo (c (mupirocin) = 5.0 mM, c (Ile) 250.0 μM, Replica 3) of 0.00839 mM/min, a vo (c (mupirocin) = 5.0 mM, c (Ile) 500.0 μM, Replica 1) of 0.01582 mM/min and a vo (c (mupirocin) = 5.0 mM, c (Ile) 500.0 μM, Replica 2) of 0.01771 mM/min. The vo (c (mupirocin) = 5.0 mM, c (Ile) 500.0 μM, Replica 3) was 0.01671 mM/min, the vo (c (mupirocin) = 5.0 mM, c (Ile) 1000.0 μM, Replica 1) was 0.02937 mM/min and the vo (c (mupirocin) = 5.0 mM, c (Ile) 1000.0 μM, Replica 2) was 0.03008 mM/min. For the same compound, the vo (c (mupirocin) = 5.0 mM, c (Ile) 1000.0 μM, Replica 3) was 0.02918 mM/min, the vo (c (mupirocin) = 5.0 mM, c (Ile) 1500.0 μM, Replica 1) was 0.03962 mM/min and the vo (c (mupirocin) = 5.0 mM, c (Ile) 1500.0 μM, Replica 2) was 0.03913 mM/min. It also gave a vo (c (mupirocin) = 5.0 mM, c (Ile) 1500.0 μM, Replica 3) of 0.04025 mM/min, a vo (c (mupirocin) = 10.0 mM, c (Ile) 100.0 μM, Replica 1) of 0.00192 mM/min and a vo (c (mupirocin) = 10.0 mM, c (Ile) 100.0 μM, Replica 2) of 0.00188 mM/min. It also gave a vo (c (mupirocin) = 10.0 mM, c (Ile) 100.0 μM, Replica 3) of 0.00205 mM/min, a vo (c (mupirocin) = 10.0 mM, c (Ile) 250.0 μM, Replica 1) of 0.00384 mM/min and a vo (c (mupirocin) = 10.0 mM, c (Ile) 250.0 μM, Replica 2) of 0.00477 mM/min. For the same compound, the vo (c (mupirocin) = 10.0 mM, c (Ile) 250.0 μM, Replica 3) was 0.00429 mM/min, the vo (c (mupirocin) = 10.0 mM, c (Ile) 500.0 μM, Replica 1) was 0.00975 mM/min and the vo (c (mupirocin) = 10.0 mM, c (Ile) 500.0 μM, Replica 2) was 0.01055 mM/min. The vo (c (mupirocin) = 10.0 mM, c (Ile) 500.0 μM, Replica 3) was 0.01023 mM/min, the vo (c (mupirocin) = 10.0 mM, c (Ile) 1000.0 μM, Replica 1) was 0.01549 mM/min and the vo (c (mupirocin) = 10.0 mM, c (Ile) 1000.0 μM, Replica 2) was 0.01681 mM/min. For the same compound, the vo (c (mupirocin) = 10.0 mM, c (Ile) 1000.0 μM, Replica 3) was 0.01726 mM/min, the vo (c (mupirocin) = 10.0 mM, c (Ile) 1500.0 μM, Replica 1) was 0.02248 mM/min and the vo (c (mupirocin) = 10.0 mM, c (Ile) 1500.0 μM, Replica 2) was 0.02398 mM/min. For the same compound, the vo (c (mupirocin) = 10.0 mM, c (Ile) 1500.0 μM, Replica 3) was 0.02428 mM/min, the initial velocity vo (c(mupirocin) 0.5 mM, c(ATP) 0.5 mM) was 0.00635 mM/min and 0.00811 mM/min and the initial velocity vo (c(mupirocin) 0.5 mM, c(ATP) 1.0 mM) was 0.01441 mM/min and 0.01486 mM/min and 0.01387 mM/min. The initial velocity vo (c(mupirocin) 0.5 mM, c(ATP) 2.5 mM) was 0.03283 mM/min and 0.03264 mM/min and 0.03523 mM/min, the initial velocity vo (c(mupirocin) 0.5 mM, c(ATP) 5.0 mM) was 0.05375 mM/min and 0.05359 mM/min and 0.05506 mM/min and the initial velocity vo (c(mupirocin) 0.5 mM, c(ATP) 10.0 mM) was 0.07349 mM/min and 0.07632 mM/min and 0.07609 mM/min. For the same compound, the initial velocity vo (c(mupirocin) 0.5 mM, c(ATP) 20.0 mM) was 0.09482 mM/min and 0.09569 mM/min and 0.09403 mM/min, the initial velocity vo (c(mupirocin) 0.5 mM, c(Ile) 50.0 μM) was 0.00742 mM/min and 0.00851 mM/min and 0.00786 mM/min and the initial velocity vo (c(mupirocin) 1.0 mM, c(ATP) 0.5 mM) was 0.00716 mM/min and 0.0055 mM/min and 0.00625 mM/min. For the same compound, the initial velocity vo (c(mupirocin) 1.0 mM, c(ATP) 1.0 mM) was 0.01194 mM/min and 0.01202 mM/min and 0.01221 mM/min, the initial velocity vo (c(mupirocin) 1.0 mM, c(ATP) 2.5 mM) was 0.0252 mM/min and 0.02429 mM/min and 0.02403 mM/min and the initial velocity vo (c(mupirocin) 1.0 mM, c(ATP) 5.0 mM) was 0.04205 mM/min and 0.0434 mM/min and 0.0426 mM/min. The initial velocity vo (c(mupirocin) 1.0 mM, c(ATP) 10.0 mM) was 0.06359 mM/min and 0.06579 mM/min and 0.06457 mM/min, the initial velocity vo (c(mupirocin) 1.0 mM, c(ATP) 20.0 mM) was 0.08534 mM/min and 0.08763 mM/min and 0.08559 mM/min and the initial velocity vo (c(mupirocin) 1.0 mM, c(Ile) 50.0 μM) was 0.00713 mM/min and 0.00706 mM/min and 0.00704 mM/min. For the same compound, the initial velocity vo (c(mupirocin) 2.5 mM, c(ATP) 1.0 mM) was 0.00558 mM/min and 0.0055 mM/min and 0.00551 mM/min, the initial velocity vo (c(mupirocin) 2.5 mM, c(ATP) 2.5 mM) was 0.01306 mM/min and 0.01742 mM/min and 0.01281 mM/min and the initial velocity vo (c(mupirocin) 2.5 mM, c(ATP) 5.0 mM) was 0.02499 mM/min and 0.026 mM/min and 0.02496 mM/min. The initial velocity vo (c(mupirocin) 2.5 mM, c(ATP) 10.0 mM) was 0.04221 mM/min and 0.04045 mM/min and 0.04296 mM/min, the initial velocity vo (c(mupirocin) 2.5 mM, c(ATP) 20.0 mM) was 0.05896 mM/min and 0.06416 mM/min and 0.05964 mM/min and the initial velocity vo (c(mupirocin) 2.5 mM, c(Ile) 50.0 μM) was 0.00279 mM/min and 0.00348 mM/min and 0.00209 mM/min. The initial velocity vo (c(mupirocin) 5.0 mM, c(ATP) 0.5 mM) was 0.00206 mM/min and 0.00219 mM/min and 0.0025 mM/min, the initial velocity vo (c(mupirocin) 5.0 mM, c(ATP) 1.0 mM) was 0.00362 mM/min and 0.00342 mM/min and 0.00337 mM/min and the initial velocity vo (c(mupirocin) 5.0 mM, c(ATP) 2.5 mM) was 0.00795 mM/min and 0.00842 mM/min and 0.00825 mM/min. For the same compound, the initial velocity vo (c(mupirocin) 5.0 mM, c(ATP) 5.0 mM) was 0.01509 mM/min and 0.0154 mM/min and 0.01576 mM/min, the initial velocity vo (c(mupirocin) 5.0 mM, c(ATP) 10.0 mM) was 0.02771 mM/min and 0.02665 mM/min and 0.0265 mM/min and the initial velocity vo (c(mupirocin) 5.0 mM, c(ATP) 20.0 mM) was 0.04308 mM/min and 0.04226 mM/min. For the same compound, the initial velocity vo (c(mupirocin) 5.0 mM, c(Ile) 50.0 μM) was 0.00223 mM/min and 0.00239 mM/min and 0.00197 mM/min and the initial velocity vo (c(mupirocin) 10.0 mM, c(Ile) 50.0 μM) was 0.00094 mM/min and 0.00075 mM/min and 0.00127 mM/min.

Reference: PMC10485003, “Antibiotic hyper-resistance in a class I aminoacyl-tRNA synthetase with altered active site signature motif” (Nature Communications, 2023)
